{
  "source": "patent US20140127287A1",
  "about": "“LIPOSOME-ENCAPSULATED HYDROGELS FOR USE IN A DRUG DELIVERY SYSTEM” (Wisconsin Alumni Research Foundation (WARF), priority 2011, published 2014)",
  "key": {"[1]": {"tested_on": "human prostate PC-3 cancer cells", "assay": "Resazurin-based metabolic cytotoxicity assay, PC-3", "assay_type": "cell-based", "details": "24 hours exposure, then 24 hours in DMEM; 17-DMAPG equivalents", "procedure": "(§1) For cell culture, cells were maintained at 37° C., 5% CO2 and 95% humidity in Dulbecco's modified Eagle's medium (DMEM) supplemented with 10% (v/v) heat inactivated fetal bovine serum (FBS), 2 mM L-glutamine and 100 unit/mL penicillin and 1000 μg/mL streptomycin. Cytotoxicity of 17-DMAPG loaded lipogels was assessed in human prostate PC-3 cancer cells and breast carcinoma MDA-MB-231 cells by resazurin-based metabolic assay. Briefly, cells were seeded in 96-well plates with 5,000 cells per well and allowed to adhere for 24 hours prior to the assay. Cells were exposed to various doses (0-35 μM on 17-DMAPG basis) of free 17-DMAPG, lipogel loaded 17-DMAPG and lipogel alone for 24 hours at 37° C., followed by washing with PBS, and maintaining in DMEM medium with 10% FBS for additional 24 hours. 10 μl of resazurin PBS solution (440 μM) was added into each well and incubated for a further 2 hours. The fluorescence was measured with a microplate reader (SpectraMax Gemini XS, Molecular Devices) with excitation at 560 nm and emission at 590 nm using wells without cells as blanks. […] The reading taken from the wells with cells cultured with control medium was used as 100% viability. The cell viability was calculated as Esample/Econtrol×100%. Based on the results of the test, the IC50 values were calculated on GraphPad Prism 5 Software (San Diego Calif., USA)."}, "[2]": {"tested_on": "breast carcinoma MDA-MB-231 cells", "assay": "Resazurin-based metabolic cytotoxicity assay, MDA-MB-231", "assay_type": "cell-based, human", "details": "24 hours exposure, then 24 hours in DMEM; 17-DMAPG equivalents", "procedure": "as §1"}, "pKa of active agents": {"assay": "pKa of active agents", "assay_type": "physicochemical", "details": "pH 6.5"}, "[3]": {"assay": "Heat stability of 17-DMAPG during incubation, HPLC analysis", "assay_type": "physicochemical", "details": "extended incubation at 65° C."}},
  "data": [
    {"smiles": "CO[C@H]1/C=C\\C=C(/C)C(=O)NC2=CC(=O)C(NCCCN(C)C)=C(C[C@@H](C)C[C@H](OC)[C@H](O)[C@@H](C)/C=C(\\C)[C@@H]1OC(N)=O)C2=O", "note": "[17-DMAPG, 17-(dimethylaminopropylamino)-17-demethoxygeldanamycin]", "values": [
      {"measurement": "IC50", "setting": "[1]", "value": 807, "unit": "nM"},
      {"measurement": "IC50", "setting": "[2]", "value": 152, "unit": "nM"},
      {"measurement": "fraction protonated and positively charged", "setting": "pKa of active agents", "value": "approximately 99%"},
      {"measurement": "heat stability (in words)", "setting": "[3]", "value": "heat instability"}
    ]}
  ]
}
